“And” between values parts separate entries of the source, which are not always exact repeats. Identical values can stand only once. Like-named read-outs stand apart in the source and are kept apart here.
Assays:
[1] = test system: Salmonella typhimurium TA 102; assay: Ames test, strain TA 102; conditions: Positive Control 5 µg/plate
[2] = molecular target: SARS-CoV-2 RNA polymerase, nsp12, 7, and 8 (Severe acute respiratory syndrome coronavirus 2, UniProt P0DTD1); assay: SARS-CoV-2 RNA polymerase inhibition assay (pyrophosphate luminescence); assay type: biochemical
SARS-CoV-2 [3] = assay: Combination of RdRp inhibitors with SARS-CoV-2 nsp14 inhibitors in infected Calu-3 cells, synergy; assay type: cell-based; design: EC99 mean: unit not given here; conditions: for EC50: Severe acute respiratory syndrome coronavirus 2, Calu-3, read-out: EC50 mean; for EC90: Severe acute respiratory syndrome coronavirus 2, Calu-3, read-out: EC90 mean; for EC99 mean: Calu-3 cells, alone or with nsp14 inhibitor at the concentration of the label, unit not given
SARS-CoV-2 [4] = assay: Genomic and subgenomic viral RNA in infected Calu-3 cells (RT-PCR); assay type: cell-based
TNF-α = TNF-α in supernatant of SARS-CoV-2-infected human primary monocytes; assay type: cell-based
Method: (§1) Human primary monocytes were obtained after 3 h of plastic adherence of peripheral blood mononuclear cells (PBMCs). The use of primary human cell was approved by Institutional Review Board from the Oswaldo Cruz Foundation under protocol 49971421.8.0000.5248 with signed informed consent in accordance with the Hemotherapy Service of Hospital Clementino Fraga from the Federal University of Rio de Janeiro. All volunteers were de-identified. PBMCs were isolated from healthy donors by density gradient centrifugation (Ficoll-Paque, GE Healthcare). PBMCs (2.0 × 10^6 cells) were plated onto 48-well plates (NalgeNunc) in RPMI-1640 without serum for 2–4 h. Nonadherent cells were removed, and the remaining monocytes were maintained in DMEM with 5% human serum (HS; Millipore) and penicillin/streptomycin. The purity of human monocytes was above 95%, as determined by flow cytometric analysis (FACScan; Becton Dickinson) using anti-CD3 (BD Biosciences, cat # 555342, 1:40), anti-CD16 (Southern Biotech, cat # 561313, 1:20) and APC mouse IgG2a isotype (BD Biosciences, cat # 550882, 1/40) and PE mouse IgG1 isotype (BD Biosciences, 555749, 1/20).

SARS-CoV-2 [5] = assay: Yield-reduction assay, SARS-CoV-2 in Calu-3 cells (titers as PFU/mL in Vero cells)
IL-6 = IL-6 in supernatant of SARS-CoV-2-infected human primary monocytes; assay type: cell-based
Method: as §1

SARS-CoV-2 [6] = assay: Cell-associated virus RNA in SARS-CoV-2-infected human primary monocytes; assay type: cell-based
Method: as §1
Total viral RNA from a culture supernatant and/or monolayers was extracted using QIAamp Viral RNA (Qiagen®) according to the manufacturer’s instructions. Quantitative RT‒PCR was performed using GoTaq® Probe qPCR and RT-qPCR Systems (Promega) in a StepOne™ Real-Time PCR System (Thermo Fisher Scientific) ABI PRISM 7500 Sequence Detection System (Applied Biosystems). Amplifications were carried out in 25 µL reaction mixtures containing 2× reaction mix buffer, […] of each primer, 10 µM of probe, and 5 µL of RNA template. Primers, probes, and cycling conditions recommended by the Centers for Disease Control and Prevention (CDC) protocol were used to detect SARS-CoV-2[52]. The standard curve method was employed for virus quantification. For reference to the cell amounts used, the housekeeping gene RNAse P (F-5′-[…] -3′, R-5′[…] -3′, P-5′-FAM-[…] -BHQ-1-3′) was amplified. The Ct values for this target were compared to those obtained for different cell amounts, 10^7 to 10^2, for calibration.

[7] = Calu-3, 10 µM, 48 h, listed as RDV
[8] = infected monocytes, drugs at 10 µM, 24 h, listed as RDV
[9] = infected Calu-3, compound alone at 10 uM

Nc1ccc2cc3ccccc3cc2c1 [2-AA, 2-aminoanthracene, reference compound]
Mutagenicity TA 102 +S9 [1]: +

O=P(O)(O)OP(=O)(O)OP(=O)(O)OC[C@H]1O[C@@H](n2cnc3c(NCc4ccco4)ncnc32)[C@H](O)[C@@H]1O [801-TP, Kinetin ribose 5’-triphosphate]
IC50 [2]: 100 ± 3 nM | IC50 fold higher than that of GS-443902 [2]: 3 fold | SARS-CoV-2 RNA polymerase inhibition (Fig2A source data, replicates) ([2]; Drug Concentration 0.001): 4 and 6 and 8 | SARS-CoV-2 RNA polymerase inhibition (Fig2A source data, replicates) ([2]; Drug Concentration 0.01): 4 and 5 (2×) | SARS-CoV-2 RNA polymerase inhibition (Fig2A source data, replicates) ([2]; Drug Concentration 0.1): 53 and 50 and 55 | SARS-CoV-2 RNA polymerase inhibition (Fig2A source data, replicates) ([2]; Drug Concentration 1): 60 and 47 and 52 | SARS-CoV-2 RNA polymerase inhibition (Fig2A source data, replicates) ([2]; Drug Concentration 10): 70 and 75 and 51

COC(=O)N[C@H](C(=O)N1CCC[C@H]1c1nc(-c2ccc(-c3ccc(-c4c[nH]c([C@@H]5CCCN5C(=O)[C@@H](NC(=O)OC)C(C)C)n4)cc3)cc2)c[nH]1)C(C)C [Daclatasvir, daclatasvir]
EC50 (SARS-CoV-2 [3]): 700 nM | EC90 (SARS-CoV-2 [3]): 3.8 µM

NC(=O)c1nc(F)c[nH]c1=O [Favipiravir, favipiravir]
EC50 (SARS-CoV-2 [3]): 7800 nM

N#C[C@@]1(c2ccc3c(N)ncnn23)O[C@H](COP(=O)(O)OP(=O)(O)OP(=O)(O)O)[C@@H](O)[C@H]1O [GS-443902]
SARS-CoV-2 RNA polymerase inhibition (Fig2A source data, replicates) ([2]; Drug Concentration 0.001): 3 (2×) and 5 | SARS-CoV-2 RNA polymerase inhibition (Fig2A source data, replicates) ([2]; Drug Concentration 0.01): 6 and 40 and 5 | SARS-CoV-2 RNA polymerase inhibition (Fig2A source data, replicates) ([2]; Drug Concentration 0.1): 65 and 63 and 80 | SARS-CoV-2 RNA polymerase inhibition (Fig2A source data, replicates) ([2]; Drug Concentration 1): 90 (2×) and 53 | SARS-CoV-2 RNA polymerase inhibition (Fig2A source data, replicates) ([2]; Drug Concentration 10): 99 and 90 and 75

CC(C)OC(=O)[C@H](C)NP(=O)(OC[C@H]1O[C@@H](n2cnc3c(NCc4ccco4)ncnc32)[C@H](O)[C@@H]1O)Oc1ccccc1 (stereo partly drawn) [MB-711, Phenyl (Isopropoxy-L-alaninyl) Kinetin Riboside Phosphoramidate]
Genomic viral RNA (Fig2B source data, replicates) (SARS-CoV-2 [4]): 0.3 and 0.45 and 0.2 | Subgenomic viral RNA (Fig2B source data, replicates) (SARS-CoV-2 [4]): 0.6 and 0.8 and 0.5 | TNF-α levels in the culture supernatant (Fig1D source data, per donor) (TNF-α): 1.6 and 1.8 and 0.638 and 2.6 and 5.0 and 4.1 | Inhibition of SARS-CoV-2 infectious titers (Fig1A source data, replicates) (SARS-CoV-2 [5]): 20 and 7 and 28 and 24 and 64 and 23 and 25 and 50 and 33 and 60 and 57 and 42 and 79 (2×) and 81 | Inhibition of SARS-CoV-2 infectious titers (Fig1B source data, replicates) (SARS-CoV-2 [5]): 16 (2×) and 20 and 43 and 73 and 50 and 55 and 71 and 77 (2×) and 80 and 75 and 99 and 97 and 95 | IL-6 levels in the culture supernatant (Fig1E source data, per donor) (IL-6): 2.2 and 1.8 and 0.121 and 4.3 and 3.4 and 5.0 and 1.5 and 2.9 | Cell-associated virus RNA levels in SARS-CoV-2-infected monocytes (SARS-CoV-2 [6]): reduced cell-associated virus RNA levels in a concentration-dependent manner | Cell-associated virus RNA loads, inhibition (Fig1C source data, per donor) (SARS-CoV-2 [6]): 2 (2×) and 0 and 32 and 30 and 35 and 40 and 45 and 50 | Virus productive titers (Fig3A source data, replicates) (SARS-CoV-2 [3]): 46000 and 30000 and 28000 | Virus productive titers (Fig3B source data, replicates) (SARS-CoV-2 [3]): 46000 and 30000 and 45000

c1coc(CNc2ncnc3c2ncn3C2CCCCO2)c1 (stereo not shown) [MB-906, 6-furfurylamino-9-(tetrahydropyran-2-yl)−9H-purine]
Antiviral activity, SARS-CoV-2 replication (SARS-CoV-2 [5]; huh-7 and calu-3 cells (Supplementary Fig. 2)): impaired

COC(=O)N[C@H](C(=O)N1CCC[C@H]1C(=O)Nc1ccc([C@@H]2CC[C@@H](c3ccc(NC(=O)[C@@H]4CCCN4C(=O)[C@@H](NC(=O)OC)C(C)C)cc3)N2c2ccc(C(C)(C)C)cc2)cc1)C(C)C [Ombitasvir, ombitasvir]
EC99 mean (SARS-CoV-2 [3]): 18 | EC50 (SARS-CoV-2 [3]): 400 nM | EC90 (SARS-CoV-2 [3]): 3.3 µM

COC(=O)N[C@H](C(=O)N1CCC[C@H]1c1nc2cc([C@H]3CC[C@H](c4cc5nc([C@@H]6CCCN6C(=O)[C@@H](NC(=O)OC)[C@@H](C)OC)[nH]c5cc4F)N3c3cc(F)c(N4CCC(c5ccc(F)cc5)CC4)c(F)c3)c(F)cc2[nH]1)[C@@H](C)OC [Pibrentasvir, pibrentasvir]
EC99 mean (SARS-CoV-2 [3]): 19 | EC50 (SARS-CoV-2 [3]): 700 nM | EC90 (SARS-CoV-2 [3]): 4.2 µM

Cc1nnc(C(=O)NC(C)(C)c2nc(C(=O)NCc3ccc(F)cc3)c(O)c(=O)n2C)o1 [RTG, raltegravir]
EC50 (SARS-CoV-2 [3]): 4800 nM | Effects on SARS-CoV-2 replication (SARS-CoV-2 [3]; alone at 5 µM, Calu-3): marginal effects | Virus productive titers (Fig3A source data, replicates) (SARS-CoV-2 [3]; infected Calu-3, RTG alone at 5uM): 224000 and 448000

CCC(CC)COC(=O)[C@H](C)N[P@](=O)(OC[C@H]1O[C@@](C#N)(c2ccc3c(N)ncnn23)[C@H](O)[C@@H]1O)Oc1ccccc1 [Remdesivir, remdesivir, reference compound]
Genomic viral RNA (Fig2B source data, replicates) (SARS-CoV-2 [4]; [7]): 0.221 and 0.22 and 0.2 | Subgenomic viral RNA (Fig2B source data, replicates) (SARS-CoV-2 [4]; [7]): 0.07 and 0.05 and 0.09 | TNF-α levels in the culture supernatant (Fig1D source data, per donor) (TNF-α; [8]): 1.6 and 1.4 and 0.437 and 0.351 and 5.3 and 4.9 and 4.3 and 6.2 | EC50 (SARS-CoV-2 [5]; Severe acute respiratory syndrome coronavirus 2, Calu-3): 150 ± 30 nM | EC50 (SARS-CoV-2 [5]; Severe acute respiratory syndrome coronavirus 2, Calu-3, 24 h): 10 ± 3 nM | Inhibition of SARS-CoV-2 infectious titers (Fig1B source data, replicates) (SARS-CoV-2 [5]; additional treatment at 24 h, Drug 0.001, Calu-3, 48 h, listed as RDV): 28 and 35 and 32 | Inhibition of SARS-CoV-2 infectious titers (Fig1B source data, replicates) (SARS-CoV-2 [5]; additional treatment at 24 h, Drug 0.01, listed as RDV): 40 and 60 and 50 | Inhibition of SARS-CoV-2 infectious titers (Fig1B source data, replicates) (SARS-CoV-2 [5]; additional treatment at 24 h, Drug 0.1, listed as RDV): 80 and 70 and 60 | Inhibition of SARS-CoV-2 infectious titers (Fig1B source data, replicates) (SARS-CoV-2 [5]; additional treatment at 24 h, Drug 1): 100 | Inhibition of SARS-CoV-2 infectious titers (Fig1B source data, replicates) (SARS-CoV-2 [5]; additional treatment at 24 h, Drug 10): 100 | Inhibition of SARS-CoV-2 infectious titers (Fig1A source data, replicates) (SARS-CoV-2 [5]; one treatment, Drug 0.001, Calu-3, MOI 0.1, 48 h, listed as RDV): 12 and 16 and 10 | Inhibition of SARS-CoV-2 infectious titers (Fig1A source data, replicates) (SARS-CoV-2 [5]; one treatment, Drug 0.01, listed as RDV): 30 and 50 and 55 | Inhibition of SARS-CoV-2 infectious titers (Fig1A source data, replicates) (SARS-CoV-2 [5]; one treatment, Drug 0.1, listed as RDV): 45 and 50 and 72 | Inhibition of SARS-CoV-2 infectious titers (Fig1A source data, replicates) (SARS-CoV-2 [5]; one treatment, Drug 1): 100 | Inhibition of SARS-CoV-2 infectious titers (Fig1A source data, replicates) (SARS-CoV-2 [5]; one treatment, Drug 10): 100 | IL-6 levels in the culture supernatant (Fig1E source data, per donor) (IL-6; [8]): 2.2 and 1.5 and 3.0 and 4.2 and 2.9 and 1.1 | Cell-associated virus RNA levels in SARS-CoV-2-infected monocytes (SARS-CoV-2 [6]; Fig. 1c): reduced cell-associated virus RNA levels in a concentration-dependent manner | EC99 mean (SARS-CoV-2 [3]): 1.1 | EC50 (SARS-CoV-2 [3]): 90 nM | EC90 (SARS-CoV-2 [3]): 0.4 µM

CC(C)OC(=O)[C@H](C)N[P@](=O)(OC[C@H]1O[C@@H](n2ccc(=O)[nH]c2=O)[C@](C)(F)[C@@H]1O)Oc1ccccc1 [Sofosbuvir, sofosbuvir]
Virus productive titers (Fig3A source data, replicates) (SARS-CoV-2 [3]; [9]): 64000 and 24000 and 240000 | Virus productive titers (Fig3B source data, replicates) (SARS-CoV-2 [3]; [9]): 64000 and 24000 and 240000

C[C@H](Cn1cnc2c(N)ncnc21)OCP(=O)(O)O [Tenofovir, tenofovir]
EC50 (SARS-CoV-2 [3]): 4300 nM | Virus productive titers (Fig3A source data, replicates) (SARS-CoV-2 [3]; [9]): 80000 and 88000 and 5000 | Virus productive titers (Fig3B source data, replicates) (SARS-CoV-2 [3]; [9]): 80000 and 88000 and 5000

— paper PMC9837764 (Nature Communications, 2023)
